Where two headings read alike, the source gives them in different places.
Tested on: outgoing potassium current (IK) in rat thoracic aorta SM cells
Experiment: Whole-cell outgoing K+ current (IK) recording in isolated thoracic aorta smooth muscle cells
Assay type: cell-based
Description: C, D show effects of potassium channel blockers (paxillin, 500 nM, and […] 10 mm) on the outgoing potassium current in smooth muscle cells of thoracic aorta not exposed to Au NPs (C) and exposed to Au NPs (D). Currents caused by single step excitations with an amplitude of 10 mV and 300 ms increments within −100 and +70 mV of outgoing potential at −60 mV.
Currents in each cell (except for leakage current) were converted into specific […], averaged and depicted versus membrane potential (mV). The data thus obtained were brought in consistency using the standard Boltzmann function with average parameters described herein. The resulting current-voltage characteristics (curves I-V) were obtained by measuring current at the end of an impulse. The data represent mean values of ±SEM (n=8).
For the purposes of the study, smooth muscle cells isolated from rat thoracic aorta using collagenase and pronase were taken. Rats were anesthetised with ketamine (37.5 mg/kg body weight, intraperitoneally) and xylazine (10 mg/kg body weight, intraperitoneally), and thoracic aorta about 1.0 . . . 1.5 cm long was removed and denuded to make it free from connective tissue. Aorta was cut into small pieces (1.5×1.5 mm) in the cooled low Ca^2+ ion content solution comprising (in mM): NaCl 140, KCl 6, MgCl2 3, D-glucose 10, HEPES 10 (pH 7.4) for 15 minutes. Vascular tissues were placed in fresh low Ca^2+ ion content solution comprising collagenase type IA 2 mg/mL (417 U/mg), pronase type E XXV 0.5 mg/ml, and bovine albumin serum 2 mg/ml. Then tissues were incubated for 30 minutes at a temperature of +37 ° C. After incubation, tissues were washed (for 2-3 minutes) twice in fresh low Ca^2+ ion content solution to remove enzymes. Cells were dispersed by stirring using a glass pipette and then placed in modified Krebs bicarbonate buffer. A certain number of muscle cells was maintained at a temperature of […] and remained functional for at least 4 hours. […]

SMILES	effect on Au NPs-induced IK increment (SM cells exposed to Au NPs)	effect on Au NPs-induced IK increment	outgoing current [pA/pF]
CC(C)(O)[C@H]1O[C@H]2CC[C@@]3(C)[C@@](O)(CC[C@H]4Cc5c([nH]c6ccccc56)[C@@]43C)C2=CC1=O [Paxillin, paxillin]	stopped Au NPs-induced IK increment		
CC[N+](CC)(CC)CC [tetraethylammonium]		stopped Au NPs-induced IK increment	3±1
